The structures appear in SMILES notation. Several values for one entry are separate records, joined by “and”; a condition that tells them apart may be missing. Equal values may be shown once.

This series deals with individuals genotyped at the rs1083338 locus (BAI3 gene). Briefly: QT prolongation (change in QTc, Fridericia) after oral iloperidone for two weeks, by rs1083338 genotype. The format is in vivo, human. To be noted: for Odds Ratio: GG vs non-GG at rs1083338, iloperidone 24 mg/day; for High QT +test (number of individuals) / Low QT +test (number of individuals) / High QT −test (number of individuals) / Low QT −test (number of individuals): iloperidone 24 mg/day B.I.D. oral; for High QT +test (number of individuals) / Low QT +test (number of individuals): GG genotype at rs1083338; for High QT −test (number of individuals) / Low QT −test (number of individuals): genotype other than GG at rs1083338. Here is the method: Since the QT interval changes with changes in heart rate, the QT interval is often measured as a corrected QT (QTc) interval. Any number of formulas may be employed to calculate the QTc, including, for example, the Fridericia formula (QTcF), the Bazett formula (QTcB), and the Rautaharju formula (QTp), among others. In the studies described herein, QT was calculated using the Fridericia formula. However, the present invention includes the use of any such formula or method for calculating a QTc or an uncorrected QT. Using the genotypes at the SNP loci above, it is possible, with a high degree of certainty, to predict an individual's predisposition to QT prolongation.

For `COc1cc(C(C)=O)ccc1OCCCN1CCC(c2noc3cc(F)ccc23)CC1` [iloperidone, 1-[4-[3-[4-(6-fluoro-1,2-benzisoxazol-3-yl)-1-piperidinyl]propoxy]-3-methoxyphenl]ethanone], where the note is “Change threshold QT > 5 msec”, the “Odds Ratio” value is listed as 4.21; the “High QT +test (number of individuals)” value is on record as 39; the “Low QT +test (number of individuals)” value is “seven and 7”; the “High QT −test (number of individuals)” value is 78. Also, the “Low QT −test (number of individuals)” value (Change threshold QT > 5 msec) was 59. Also, where the note is “Change threshold QT > 15 msec”, the “Odds Ratio” value came out at 3.61, the “High QT +test (number of individuals)” value stood at 29, the “Low QT +test (number of individuals)” value was 17 and the “High QT −test (number of individuals)” value is given as 44. Besides, the “Low QT −test (number of individuals)” value (Change threshold QT > 15 msec) is reported as 93. For the same compound, where the note is “Change threshold QT > 30 msec”, the “Odds Ratio” value stood at 3.84, the “High QT +test (number of individuals)” value came out at 14, the “Low QT +test (number of individuals)” value was found to be 32 and the “High QT −test (number of individuals)” value is listed as 14. For the same compound, the “Low QT −test (number of individuals)” value (Change threshold QT > 30 msec) was found to be 123.
